Test results as given in PubChem BioAssay AID1259407 (Chemical Carcinogenesis Research Information System (CCRIS), 2018).
Activity calls are given as the source filed them. The rule behind the calls is not given here.

System: CCRIS mutagenicity, Ames/micronucleus/aberration tests
Experiment: CCRIS mutagenicity studies

For C=CCc1ccc2c(c1)OCO2, the mutagenic call (Test System: AMES SALMONELLA TYPHIMURIUM, Strain/Indicator: TA97, Metabolic Activation: HAMSTER LIVER S-9, AROCLOR 1254 (10%), Method: PREINCUBATION) was “inactive; negative”, the mutagenic call (Test System: AMES SALMONELLA TYPHIMURIUM, Strain/Indicator: TA97, Metabolic Activation: HAMSTER LIVER S-9, AROCLOR 1254 (30%), Method: PREINCUBATION) was “inactive; negative” and the mutagenic call (Test System: AMES SALMONELLA TYPHIMURIUM, Strain/Indicator: TA97, Metabolic Activation: NONE, Method: PREINCUBATION) was “inactive; negative”. The mutagenic call (Test System: AMES SALMONELLA TYPHIMURIUM, Strain/Indicator: TA97, Metabolic Activation: NONE, Method: STANDARD PLATE) was “inactive; negative”, the mutagenic call (Test System: AMES SALMONELLA TYPHIMURIUM, Strain/Indicator: TA97, Metabolic Activation: RAT LIVER S-9, AROCLOR 1254 (10%), Method: PREINCUBATION) was “inactive; negative” and the mutagenic call (Test System: AMES SALMONELLA TYPHIMURIUM, Strain/Indicator: TA97, Metabolic Activation: RAT LIVER S-9, AROCLOR 1254 (30%), Method: PREINCUBATION) was “inactive; negative”. For the same compound, the mutagenic call (Test System: AMES SALMONELLA TYPHIMURIUM, Strain/Indicator: TA97, Metabolic Activation: S-9, Method: STANDARD PLATE) was “inactive; negative”, the mutagenic call (Test System: AMES SALMONELLA TYPHIMURIUM, Strain/Indicator: TA98, Metabolic Activation: HAMSTER LIVER S-9, AROCLOR 1254 (10%), Method: PREINCUBATION) was “inactive; negative” and the mutagenic call (Test System: AMES SALMONELLA TYPHIMURIUM, Strain/Indicator: TA98, Metabolic Activation: HAMSTER LIVER S-9, AROCLOR 1254 (30%), Method: PREINCUBATION) was “inactive; negative”. The mutagenic call (Test System: AMES SALMONELLA TYPHIMURIUM, Strain/Indicator: TA98, Metabolic Activation: NONE, Method: PREINCUBATION) was “inactive; negative”, the mutagenic call (Test System: AMES SALMONELLA TYPHIMURIUM, Strain/Indicator: TA98, Metabolic Activation: NONE, Method: STANDARD PLATE) was “inactive; negative” and the mutagenic call (Test System: AMES SALMONELLA TYPHIMURIUM, Strain/Indicator: TA98, Metabolic Activation: RAT LIVER S-9, AROCLOR 1254 (10%), Method: PREINCUBATION) was “inactive; negative”. The mutagenic call (Test System: AMES SALMONELLA TYPHIMURIUM, Strain/Indicator: TA98, Metabolic Activation: RAT LIVER S-9, AROCLOR 1254 (30%), Method: PREINCUBATION) was “inactive; negative”, the mutagenic call (Test System: AMES SALMONELLA TYPHIMURIUM, Strain/Indicator: TA98, Metabolic Activation: RAT, LIVER, S-9, AROCLOR 1254, Method: STANDARD PLATE) was “inactive; negative” and the mutagenic call (Test System: AMES SALMONELLA TYPHIMURIUM, Strain/Indicator: TA98, Metabolic Activation: S-9, Method: STANDARD PLATE) was “inactive; negative”. The mutagenic call (Test System: AMES SALMONELLA TYPHIMURIUM, Strain/Indicator: TA100, Metabolic Activation: HAMSTER LIVER S-9, AROCLOR 1254 (10%), Method: PREINCUBATION) was “inactive; negative”, the mutagenic call (Test System: AMES SALMONELLA TYPHIMURIUM, Strain/Indicator: TA100, Metabolic Activation: HAMSTER LIVER S-9, AROCLOR 1254 (30%), Method: PREINCUBATION) was “inactive; negative” and the mutagenic call (Test System: AMES SALMONELLA TYPHIMURIUM, Strain/Indicator: TA100, Metabolic Activation: NONE, Method: PREINCUBATION) was “inactive; negative”. The mutagenic call (Test System: AMES SALMONELLA TYPHIMURIUM, Strain/Indicator: TA100, Metabolic Activation: NONE, Method: STANDARD PLATE) was “inactive; negative”, the mutagenic call (Test System: AMES SALMONELLA TYPHIMURIUM, Strain/Indicator: TA100, Metabolic Activation: RAT LIVER S-9, AROCLOR 1254 (10%), Method: PREINCUBATION) was “inactive; negative” and the mutagenic call (Test System: AMES SALMONELLA TYPHIMURIUM, Strain/Indicator: TA100, Metabolic Activation: RAT LIVER S-9, AROCLOR 1254 (30%), Method: PREINCUBATION) was “inactive; negative”. For the same compound, the mutagenic call (Test System: AMES SALMONELLA TYPHIMURIUM, Strain/Indicator: TA100, Metabolic Activation: RAT, LIVER, S-9, AROCLOR 1254, Method: STANDARD PLATE) was “inactive; negative”, the mutagenic call (Test System: AMES SALMONELLA TYPHIMURIUM, Strain/Indicator: TA100, Metabolic Activation: S-9, Method: STANDARD PLATE) was “inactive; negative” and the mutagenic call (Test System: AMES SALMONELLA TYPHIMURIUM, Strain/Indicator: TA102, Metabolic Activation: NONE, Method: STANDARD PLATE) was “inactive; negative”. For the same compound, the mutagenic call (Test System: AMES SALMONELLA TYPHIMURIUM, Strain/Indicator: TA102, Metabolic Activation: RAT LIVER S-9, PHENOBARBITAL AND 5,6-BENZOFLAVONE, Method: STANDARD PLATE) was “inactive; negative”, the mutagenic call (Test System: AMES SALMONELLA TYPHIMURIUM, Strain/Indicator: TA102, Metabolic Activation: S-9, Method: STANDARD PLATE) was “inactive; negative” and the mutagenic call (Test System: AMES SALMONELLA TYPHIMURIUM, Strain/Indicator: TA1535, Metabolic Activation: HAMSTER LIVER S-9, AROCLOR 1254 (10%), Method: PREINCUBATION) was “inactive; negative”. The mutagenic call (Test System: AMES SALMONELLA TYPHIMURIUM, Strain/Indicator: TA1535, Metabolic Activation: HAMSTER LIVER S-9, AROCLOR 1254 (30%), Method: PREINCUBATION) was “inactive; negative”, the mutagenic call (Test System: AMES SALMONELLA TYPHIMURIUM, Strain/Indicator: TA1535, Metabolic Activation: NONE, Method: PREINCUBATION) was “inactive; negative” and the mutagenic call (Test System: AMES SALMONELLA TYPHIMURIUM, Strain/Indicator: TA1535, Metabolic Activation: NONE, Method: STANDARD PLATE) was “inactive; negative”. The mutagenic call (Test System: AMES SALMONELLA TYPHIMURIUM, Strain/Indicator: TA1535, Metabolic Activation: PAPS, Method: STANDARD PLATE) was “inactive; negative”, the mutagenic call (Test System: AMES SALMONELLA TYPHIMURIUM, Strain/Indicator: TA1535, Metabolic Activation: RAT LIVER S-9, AROCLOR 1254 (10%), Method: PREINCUBATION) was “inactive; negative” and the mutagenic call (Test System: AMES SALMONELLA TYPHIMURIUM, Strain/Indicator: TA1535, Metabolic Activation: RAT LIVER S-9, AROCLOR 1254 (30%), Method: PREINCUBATION) was “inactive; negative”. The mutagenic call (Test System: AMES SALMONELLA TYPHIMURIUM, Strain/Indicator: TA1535, Metabolic Activation: RAT, LIVER, S-9, AROCLOR 1254, PAPS, Method: STANDARD PLATE) was “active; positive”, the mutagenic call (Test System: AMES SALMONELLA TYPHIMURIUM, Strain/Indicator: TA1535, Metabolic Activation: RAT, LIVER, S-9, AROCLOR 1254, Method: STANDARD PLATE) was “inactive; negative” and the mutagenic call (Test System: AMES SALMONELLA TYPHIMURIUM, Strain/Indicator: TA1537, Metabolic Activation: NONE, Method: STANDARD PLATE) was “inactive; negative”. For the same compound, the mutagenic call (Test System: AMES SALMONELLA TYPHIMURIUM, Strain/Indicator: TA1537, Metabolic Activation: RAT, LIVER, S-9, AROCLOR 1254, Method: STANDARD PLATE) was “inactive; negative”, the mutagenic call (Test System: AMES SALMONELLA TYPHIMURIUM, Strain/Indicator: TA1538, Metabolic Activation: NONE, Method: STANDARD PLATE) was “inactive; negative” and the mutagenic call (Test System: AMES SALMONELLA TYPHIMURIUM, Strain/Indicator: TA1538, Metabolic Activation: RAT, LIVER, S-9, AROCLOR 1254, Method: STANDARD PLATE) was “inactive; negative”. For the same compound, the mutagenic call (Test System: AMES SALMONELLA TYPHIMURIUM, Strain/Indicator: TA2638, Metabolic Activation: RAT LIVER S-9, PHENOBARBITAL AND 5,6-BENZOFLAVONE, Method: STANDARD PLATE) was “inactive; negative”, the mutagenic call (Test System: CHINESE HAMSTER OVARY, Strain/Indicator: CHO/6-THIOGUANINE, Metabolic Activation: HAMSTER EMBRYO CELL-MEDIATED) was “inactive; negative” and the mutagenic call (Test System: CHINESE HAMSTER OVARY, Strain/Indicator: CHO/6-THIOGUANINE, Metabolic Activation: NONE) was “inactive; negative”. The mutagenic call (Test System: CHINESE HAMSTER OVARY, Strain/Indicator: CHO/OUABAIN, Metabolic Activation: HAMSTER EMBRYO CELL-MEDIATED) was “inactive; negative”, the mutagenic call (Test System: CHINESE HAMSTER OVARY, Strain/Indicator: CHO/OUABAIN, Metabolic Activation: NONE) was “inactive; negative” and the mutagenic call (Test System: CHINESE HAMSTER V-79, Strain/Indicator: V-79 (HGPRT)/6-THIOGUANINE, Metabolic Activation: NONE) was “inactive; negative”. The mutagenic call (Test System: CHINESE HAMSTER V-79, Strain/Indicator: V-79 (HGPRT)/6-THIOGUANINE, Metabolic Activation: RAT, LIVER, S-9, PHENOBARBITAL AND BETA-NAPHTHOFLAVONE) was “inactive; negative”, the mutagenic call (Test System: CHINESE HAMSTER V-79, Strain/Indicator: V-79/6-THIOGUANINE, Metabolic Activation: NONE, Method: REPLATING) was “active; positive” and the mutagenic call (Test System: CHINESE HAMSTER V-79, Strain/Indicator: V-79/OUABAIN, Metabolic Activation: HAMSTER EMBRYO CELL-MEDIATED) was “inactive; negative”. For the same compound, the mutagenic call (Test System: CHINESE HAMSTER V-79, Strain/Indicator: V-79/OUABAIN, Metabolic Activation: NONE) was “inactive; negative”, the mutagenic call (Test System: CHINESE HAMSTER V-79, Strain/Indicator: V-79/OUABAIN, Metabolic Activation: RAT, LIVER, S-15, PHENOBARBITAL AND 5,6-BENZOFLAVONE) was “inactive; negative” and the mutagenic call (Test System: E. COLI, Strain/Indicator: WP2 (PKM101), Metabolic Activation: RAT LIVER S-9, PHENOBARBITAL AND 5,6-BENZOFLAVONE, Method: STANDARD PLATE) was “inactive; negative”. The mutagenic call (Test System: E. COLI, Strain/Indicator: WP2 UVRA (PKM101), Metabolic Activation: RAT LIVER S-9, PHENOBARBITAL AND 5,6-BENZOFLAVONE, Method: STANDARD PLATE) was “inactive; negative”, the mutagenic call (Test System: MOUSE LYMPHOMA, Strain/Indicator: L5178Y (TK+/+)/OUABAIN, Metabolic Activation: NONE, Method: SUSPENSION/PLATE) was “active; positive” and the mutagenic call (Test System: MOUSE LYMPHOMA, Strain/Indicator: L5178Y (TK+/+)/OUABAIN, Metabolic Activation: RAT LIVER S-9, AROCLOR 1254, Method: SUSPENSION/PLATE) was “active; positive”. For the same compound, the mutagenic call (Test System: MOUSE LYMPHOMA, Strain/Indicator: L5178Y (TK+/-)/TRIFLUROTHYMIDINE, Metabolic Activation: NONE, Method: SUSPENSION/PLATE) was “active; positive”, the mutagenic call (Test System: MOUSE LYMPHOMA, Strain/Indicator: L5178Y (TK+/-)/TRIFLUROTHYMIDINE, Metabolic Activation: RAT LIVER S-9, AROCLOR 1254, Method: SUSPENSION/PLATE) was “inactive; negative” and the mutagenic call (Test System: MOUSE LYMPHOMA, Strain/Indicator: L5178Y (TK+/TK-), Metabolic Activation: NONE, Method: SUSPENSION/PLATE) was “inactive; negative”. The mutagenic call (Test System: MOUSE LYMPHOMA, Strain/Indicator: L5178Y (TK+/TK-), Metabolic Activation: RAT, LIVER, S-9, Method: SUSPENSION/PLATE) was “active; positive” and the mutagenic call (Test System: UDS RAT HEPATOCYTES, Strain/Indicator: THY INCORP, Metabolic Activation: NONE, Method: LIQUID SCINTILLATION COUNTING) was “active; positive”.
